Data on four molecules can be found in patent publication US20230165824A1, “METHODS, SYSTEMS AND COMPOSITIONS FOR INHIBITION OF CELLULAR DYSFUNCTION AND CELL DEATH WITH DEUTERATED PUFAs” (BioJiva LLC, priority 2021, published 2023).

One series deals with murine fibroblasts. To be noted: for % Cell Survival: murine fibroblasts treated with 50 micromolar erastin, plate dilution assay; for Level of protection against LPO induced cell death relative to 13,13-D2-arachidonic acid: murine fibroblasts, 50 micromolar erastin.
The conditions of series [1]: ALS patients on D2-LA; based on total AA and D2-AA; 'when calculated'. The method, then: (§1) Patients suffering from ALS were treated with D2-LA over a period of time. […] Some patients were provided 2 grams of 11,11-D-2 LA per day as opposed to the loading dose of 9 grams per day.
(§2) Functional scores for each of the patients (ALSFRS-R results) at the end of therapy were compared to the natural history scores at the start of therapy.

Series [2] is described as follows: Determination of D2-AA and D2-LA concentrations in CSF and RBCs in a single patient (Example 1). The source says:
This example determines the relative concentration of D2-AA in the CSF and in RBCs in order to determine a correlation between these two concentrations. Specifically, a patient was continuously provided with a daily dose of 9 grams of D2-LA ethyl ester (which is 8.64 grams of active discounting for impurities and removal of the ethyl ester) over about a six-month period. Periodic samples of blood and CSF were taken and the concentration of both D2-LA and D-2AA in both the RBCs and the CSF were measured. In all cases, the D2-AA was obtained by deacylation of the ethyl ester of linoleic acid in the gastrointestinal tract followed by conversion of D2-LA in vivo to D2-AA.

For series [3] the following is noted: INAD children, 3.9 grams D2-LA ethyl ester daily for 1 month then 2.9 grams. On the procedure: In this example, children suffering from INAD were treated with a daily dose of 3.9 grams of D2-LA ethyl ester followed by 2.9 grams of D2-LA ethyl ester. Given the age and weight of these children, such is assumed to be substantially equivalent to a loading dose of from about 7 and about 12 grams per day for an adult patient for an adult patient and a maintenance dose which is less than the loading dose again for an adult patient.
This example also determines the concentration of D2-AA in RBCs. Specifically, a cohort of 14 children was provided with a daily dose of 3.9 grams of D2-LA ethyl ester for 1 month followed by 2.9 grams of D2-LA ethyl ester for the remaining six-month period. Blood samples were taken at 3 months for all but 1 child and at 6 months for all children. The concentration of D2-AA in RBCs was measured.

The conditions of series [4]: 6 months; 15 INAD infants treated.
Another series relates to patients with ALS. Briefly: ALSFRS-R rate of functional decline in ALS patients on primer/maintenance dosing regimen (Example 3). It is filed as in vivo, human. To be noted: for Annualized average reduction in the rate of disease progression: 9 grams then 5 grams daily, vs natural history. The method, then:
As set forth in the examples below, the rate of functional decline is predicated on measuring an individual's, or a cohort's, average for the natural history of disease progression. Next, the individual or cohort average for the functional decline is determined at a period of time such as at 3, 6 or 12 months after initiation of therapy. The rate of decline based on the average of the natural history of the cohort is set as the denominator. The numerator is set as the delta between the rate of the natural history of disease progression and the rate of functional decline after a set period of treatment per this invention. The resulting fraction is the multiplied by 100 to give a percent change. The following exemplifies this analysis.
This example illustrates the reduction in the rate of disease progression in patients with ALS treated by the dosing methods described herein, this example evidences that the amount of oxidized PUFA products has been reduced to a level that allows the otherwise impaired regulatory enzymes are able to neutralize substantially all of these oxidized products now generated. Specifically, a cohort of 3 patients was placed on a dosing regimen consisting of a first dosing component (primer dose) of about 9 grams of D2-LA ethyl ester daily for a period of at least 30 days and then all three patients were transitioned to a second dosing component (maintenance dose) of 5 grams of D2-LA ethyl ester.
The functionality of each of the patients was evaluated periodically using the ALSFRS-R protocol. The patients continued on the dosing regimen for a period of 6 months (patient A) or 1 year (patient B) or for 9 months (patient C). Patient C died at the end of 9 months and their death was attributed to factors other than ALS cardiomyopathy. Before initiation of therapy, the natural history of each patient in the cohort was determined and an average annual rate of functional decline was measured at 21.
The annualized progression of the disease, as measured by an average annual rate of functional decline for all three patients starting at the time that dosing began and terminating at the end of the dosing regimen and then annualized as described above, was measured as 2.1. Using the formula described above, one obtains the following: […]

Series [5] relates to patients suffering from ALS. Briefly: ALSFRS-R rate of functional decline in ALS patients treated with D2-LA (Comparative Example A). The series is classed as in vivo, human. On the procedure:
as §1, §2

For series [6], the system named is infants suffering from INAD. In words: Open label treatment study of INAD patients (Example 6). It is filed as in vivo, human. The method, then:
Novel and conventional developmental neurologic assessment scales appropriate to the disease and which measure vital function in different parts of the brain were applied at base line and at 6 monthly intervals and the health and well-being of the infants were assessed continuously for 1-2 years, including any aspiration pneumonia, hospitalizations and deaths.

[7] abbreviates: 3 months, single patient, daily 9 grams D2-LA ethyl ester.
Setting [8] is: 6 months, single patient, daily 9 grams D2-LA ethyl ester.

Like-named read-outs stand apart in the source and are kept apart here.

Method for murine fibroblasts: In this example, two different pools of cells were each seeded in 48-well plates and treated with 50 micromolar of erastin.
Afterwards, cell viability was measured by plate dilution assay to distinguish between cells that are alive and those that are dead on a Petri dish.

On to `[2H]C([2H])(/C=C\CCCCC)/C=C\C([2H])([2H])/C=C\C([2H])([2H])/C=C\CCCC(=O)O`, for which, in the series with murine fibroblasts, the “% Cell Survival” value is 70.2% and the “Level of protection against LPO induced cell death relative to 13,13-D2-arachidonic acid” value is “approximately twice the level of protection”. The “Level of protection against LPO induced cell death relative to 13,13-D2-arachidonic acid” value with murine fibroblasts (listed as D6-AA) was “about 2”.
For the molecule `[2H]C([2H])(/C=C\C/C=C\C/C=C\CCCC(=O)O)/C=C\CCCCC` [D2-AA, 13,13-D2-Arachidonic Acid], in series [1], the “Amount of D2-AA in the patients' RBCs, average” value is “about 3%”. In addition, in series [2] (1 month, extrapolated from 3 and 6 month values (FIG. 1)), the “Amount of D2-AA in RBCs at 1 month, estimated by linear extrapolation” value is recorded as “about 3%”. The “Concentration of D2-AA in CSF” value in series [2] (1 month, single patient, daily 9 grams D2-LA ethyl ester, based on arachidonic acid + deuterated arachidonic acid) was 8%. Besides, the results for the “Concentration of D2-AA in RBCs” value in series [2] (setting [7]) and in series [2] (setting [8]) were 11.8% and 16.7%, respectively. Also, the “Average concentration of D2-AA in the RBCs” value came out at 12% in series [3] (3 months) and 16.7% in series [3] (6 months). The “Average plasma level of D2-AA” value in series [4] is 17.4%. For the same molecule, the “% Cell Survival” value in the series with murine fibroblasts is 33.2%.
As to `[2H]C([2H])(/C=C\CCCCC)/C=C\CCCCCCCC(=O)OCC` [D2-LA ethyl ester, 11,11-D2-linoleic acid ethyl ester], the “Functional Rate Decline During Therapy” value in the series with patients with ALS (Patient A, 6 months on regimen, NH rate of decline −16) is on record as −3; in the series with patients with ALS (Patient B, 1 year on regimen, NH rate of decline −31), −2; in the series with patients with ALS (Patient C, 9 months on regimen, NH rate of decline −16), −1.3. In the series with patients with ALS (cohort of 3 ALS patients), the “Annualized average reduction in the rate of disease progression” value turned out to be 90%. Further, in the series with patients with ALS (cohort of 3 ALS patients, about 9 grams daily at least 30 days then 5 grams, natural history 21), the “Average annual rate of functional decline (ALSFRS-R) during dosing, annualized” value stood at 2.1.
In the case of `[2H]C([2H])(/C=C\CCCCC)/C=C\CCCCCCCC(=O)O` [D2-LA, 11,11-D2-Linoleic Acid], in series [5] (different dosing amounts and periods of D2-LA (some 2 grams per day), pre-treatment −14.2+/−4.4), the “Annualized rate of decline (ALSFRS-R) during treatment” value is −7.6+/−1.4 per year. Further, the “Reduction in rate of decline vs pre-treatment” value in series [5] (p=0.07, paired t-test for within-subject change in slope) is on record as 46%. Also, the “Concentration of D2-LA in CSF” value in series [2] (1 month, single patient, daily dose of 9 grams of D2-LA ethyl ester) came out at 19.8%. In addition, the “Concentration of D2-LA in RBCs” value in series [2] (setting [7]) came out at 34.7%. Moreover, the “Concentration of D2-LA in RBCs” value in series [2] (setting [8]) worked out at 34.5%. Besides, in series [6] (19 INAD infants treated), the “Deaths due to other causes” value stood at 2 and the Non-fatal pneumonia was 2. The molecule also registered a Serious events in series [6] (19 INAD infants treated at least 1 year and up to 2.5 years) of 4. In series [6] (19 INAD infants treated at least 1 year and up to 2.5 years, natural history 10/37), the “No. of Aspirations resulting in pneumonias” value was 2/19. Further, the Percent mortality in series [6] (19 INAD infants treated, mortality from pneumonias, natural history 21.6%) is 0%. Besides, the “Fatal Pneumonias” value in series [6] (19 INAD infants treated, natural history 8) turned out to be 0. For the same molecule, the “Percent Pneumonias” value in series [6] (19 INAD infants treated, natural history 27.0%) is listed as 10.5%. In series [6] (19 subjects over 2.5 years treatment), the “Deaths due to aspiration pneumonia” value is “no deaths due to aspiration pneumonia”. For the same molecule, the “Annualized average reduction in the rate of disease progression” value in the series on patients with ALS (cohort of 3 ALS patients) is approximately 90%.
